Structures are written as SMILES.

What is called IC50 is the concentration needed to halve the response being measured. The Cmax is the peak of the concentration-time curve. Broadly, the bioavailability is dose-corrected exposure relative to a reference, in per cent. The term Ki denotes the equilibrium dissociation constant of an inhibitor or competing ligand from its target.

The target in data set [1] is Wee1-like protein kinase (Homo sapiens, UniProt P30291). Put plainly: Displacement of tracer 178 from WEE1 (unknown origin) incubated for 1 hr by Lantha Screen assay.
The target of data set [2] is T1, Poly [ADP-ribose] polymerase 1 (Homo sapiens, UniProt P09874). Put plainly: Inhibition of PARP1 (unknown origin) incubated for 1 hr by chemiluminescence assay.
Data set [3] concerns the target T2, Phosphatidylinositol 4,5-bisphosphate 3-kinase catalytic subunit alpha isoform (Homo sapiens, UniProt P42336). Put plainly: Inhibition of PI3K-alpha (unknown origin) incubated for 40 mins in presence of ATP by ELISA. (ELISA stands for enzyme-linked immunosorbent assay.)
For data set [4], the system named is HCT-116. Put plainly: Inhibition of cell proliferation in human HCT-116 cells incubated for 72 hrs by SRB assay. It counts as functional, cell-based. The conditions noted are these: HCT-116, 72 h. In general terms: In SRB staining, fixed cells bind dye roughly in proportion to their protein.
The test system of data set [5] is HCC1937. Put plainly: Inhibition of cell proliferation in human HCC1937 cells incubated for 72 hrs by SRB assay. The conditions noted are these: HCC1937, 72 h. It counts as functional, cell-based.
The test system of data set [6] is MDA-MB-231. Put plainly: Inhibition of cell proliferation in human MDA-MB-231 cells incubated for 72 hrs by SRB assay. It counts as functional, cell-based. Particulars: MDA-MB-231, 72 h.
The nature of data set [7]: Cmax in BALB/c mouse at 2 mg/kg, po by LC-MS/MS analysis. In kind it is ADME, organism-based. On the set-up: dose 2 mg/kg, route po. Particulars: in vivo.
The nature of data set [8]: Oral bioavailability in BALB/c mouse at 2 mg/kg by LC-MS/MS analysis. In kind it is ADME, organism-based. The conditions noted are these: in vivo.
The target in data set [9] is T3, DNA-dependent protein kinase catalytic subunit (Homo sapiens, UniProt P78527). Put plainly: Inhibition of DNA-PK (unknown origin) incubated for 3 hrs by ADP-Glo kinase assay. On the technique in general: ADP-Glo first removes unused ATP, then detects ADP through luciferase.
For data set [10], the system named is NCI-H1299. Put plainly: Inhibition of cell proliferation in human NCI-H1299 cells incubated for 3 days by MTT assay. The conditions noted are these: NCI-H1299, 72 h. In kind it is functional, cell-based.
Data set [11] deals with T1, Poly [ADP-ribose] polymerase 1. Put plainly: Inhibition of N-terminal GST-tagged recombinant human PARP1 (2 to 1014 residues) expressed in Sf9 insect cells incubated for 1 hr by colorimetric assay.
Data set [12] addresses T4, ATR/ATRIP (Homo sapiens, UniProt Q13535). Put plainly: Inhibition of full-length recombinant human ATR/ATRIP using p53 as substrate incubated for 30 mins in presence of ATP by HTRF assay. In kind it is protein-complex assay.
The test system of data set [13] is HCT-116. Put plainly: Inhibition of cell proliferation in human HCT-116 incubated for 48 hrs by Cell Titer Glo assay. It counts as functional, cell-based. Particulars: HCT-116, 48 h.
In data set [14] the test system is NCI-H23. Put plainly: Inhibition of cell proliferation in human NCI-H23 incubated for 48 hrs by Cell Titer Glo assay. In kind it is functional, cell-based. The conditions noted are these: NCI-H23, 48 h.
For data set [15], the target named is Poly [ADP-ribose] polymerase tankyrase-1 (Homo sapiens, UniProt O95271). Put plainly: Inhibition of tankyrase 1 (unknown origin) incubated for 1 hr by chemiluminescence assay.
For data set [16], the target named is Poly [ADP-ribose] polymerase tankyrase-2 (Homo sapiens, UniProt Q9H2K2). Put plainly: Inhibition of tankyrase 2 (unknown origin) incubated for 1 hr by chemiluminescence based assay.
Data set [17] addresses Serine/threonine-protein kinase ATR (Homo sapiens, UniProt Q13535). Put plainly: Inhibition of ATR (unknown origin).
The target of data set [18] is T5, Serine-protein kinase ATM (Homo sapiens, UniProt Q13315). Put plainly: Inhibition of ATM (unknown origin).
Data set [19] is filed under the species Homo sapiens. Put plainly: Selectivity index, ratio of IC50 for ATM (unknown origin) to IC50 for ATR (unknown origin).
For data set [20], the species on record is Homo sapiens. Put plainly: Selectivity index, ratio of IC50 for ATM (unknown origin) to IC50 for PI3K-alpha (unknown origin).
The species entered for data set [21] is Homo sapiens. Put plainly: Selectivity index, ratio of IC50 for ATM (unknown origin) to IC50 for mTOR (unknown origin).
For data set [22], the target named is T2, Phosphatidylinositol 4,5-bisphosphate 3-kinase catalytic subunit alpha isoform. Put plainly: Inhibition of PI3K-alpha (unknown origin).
For data set [23], the target named is Serine/threonine-protein kinase mTOR (Homo sapiens, UniProt P42345). Put plainly: Inhibition of mTOR (unknown origin).
Data set [24] addresses T3, DNA-dependent protein kinase catalytic subunit. Put plainly: Inhibition of full-length human DNA-PK expressed in baculovirus expression system using p53 as substrate incubated for 1 hr in presence of ATP by ELISA.
The target of data set [25] is T5, Serine-protein kinase ATM. Put plainly: Inhibition of ATM in human MCF7 cells […] incubated for 1 hr by Cell Western assay. It counts as cell-based.
Data set [26] concerns the target T3, DNA-dependent protein kinase catalytic subunit. Put plainly: Inhibition of DNA-PK (unknown origin) assessed as inhibition constant using Glu-Pro-Pro-Leu-Ser-Gln-Glu-Ala-Phe-Ala-Asp-Leu-Trp-Lys-Lys-Lys peptide as substrate incubated for 45 mins in presence of [33P]-ATP by scintillation counting method.
The target in data set [27] is T4, ATR/ATRIP. Put plainly: Inhibition of human FLAG-tagged ATR/c-Myc-tagged ATRIP expressed in mammalian expression system using p53 as substrate incubated for 2 hrs by fluorescence based assay.
Data set [28] deals with LoVo. Put plainly: Inhibition of cell growth in human LoVo cells assessed as measuring ATP content incubated for 3 days by Cell Titer Glo assay. It counts as functional, cell-based. The conditions noted are these: 72 h.
Data set [29] addresses T1, Poly [ADP-ribose] polymerase 1. Put plainly: Inhibition of PARP1 (unknown origin) by ELISA.

T3 sequence (P78527 whole entry): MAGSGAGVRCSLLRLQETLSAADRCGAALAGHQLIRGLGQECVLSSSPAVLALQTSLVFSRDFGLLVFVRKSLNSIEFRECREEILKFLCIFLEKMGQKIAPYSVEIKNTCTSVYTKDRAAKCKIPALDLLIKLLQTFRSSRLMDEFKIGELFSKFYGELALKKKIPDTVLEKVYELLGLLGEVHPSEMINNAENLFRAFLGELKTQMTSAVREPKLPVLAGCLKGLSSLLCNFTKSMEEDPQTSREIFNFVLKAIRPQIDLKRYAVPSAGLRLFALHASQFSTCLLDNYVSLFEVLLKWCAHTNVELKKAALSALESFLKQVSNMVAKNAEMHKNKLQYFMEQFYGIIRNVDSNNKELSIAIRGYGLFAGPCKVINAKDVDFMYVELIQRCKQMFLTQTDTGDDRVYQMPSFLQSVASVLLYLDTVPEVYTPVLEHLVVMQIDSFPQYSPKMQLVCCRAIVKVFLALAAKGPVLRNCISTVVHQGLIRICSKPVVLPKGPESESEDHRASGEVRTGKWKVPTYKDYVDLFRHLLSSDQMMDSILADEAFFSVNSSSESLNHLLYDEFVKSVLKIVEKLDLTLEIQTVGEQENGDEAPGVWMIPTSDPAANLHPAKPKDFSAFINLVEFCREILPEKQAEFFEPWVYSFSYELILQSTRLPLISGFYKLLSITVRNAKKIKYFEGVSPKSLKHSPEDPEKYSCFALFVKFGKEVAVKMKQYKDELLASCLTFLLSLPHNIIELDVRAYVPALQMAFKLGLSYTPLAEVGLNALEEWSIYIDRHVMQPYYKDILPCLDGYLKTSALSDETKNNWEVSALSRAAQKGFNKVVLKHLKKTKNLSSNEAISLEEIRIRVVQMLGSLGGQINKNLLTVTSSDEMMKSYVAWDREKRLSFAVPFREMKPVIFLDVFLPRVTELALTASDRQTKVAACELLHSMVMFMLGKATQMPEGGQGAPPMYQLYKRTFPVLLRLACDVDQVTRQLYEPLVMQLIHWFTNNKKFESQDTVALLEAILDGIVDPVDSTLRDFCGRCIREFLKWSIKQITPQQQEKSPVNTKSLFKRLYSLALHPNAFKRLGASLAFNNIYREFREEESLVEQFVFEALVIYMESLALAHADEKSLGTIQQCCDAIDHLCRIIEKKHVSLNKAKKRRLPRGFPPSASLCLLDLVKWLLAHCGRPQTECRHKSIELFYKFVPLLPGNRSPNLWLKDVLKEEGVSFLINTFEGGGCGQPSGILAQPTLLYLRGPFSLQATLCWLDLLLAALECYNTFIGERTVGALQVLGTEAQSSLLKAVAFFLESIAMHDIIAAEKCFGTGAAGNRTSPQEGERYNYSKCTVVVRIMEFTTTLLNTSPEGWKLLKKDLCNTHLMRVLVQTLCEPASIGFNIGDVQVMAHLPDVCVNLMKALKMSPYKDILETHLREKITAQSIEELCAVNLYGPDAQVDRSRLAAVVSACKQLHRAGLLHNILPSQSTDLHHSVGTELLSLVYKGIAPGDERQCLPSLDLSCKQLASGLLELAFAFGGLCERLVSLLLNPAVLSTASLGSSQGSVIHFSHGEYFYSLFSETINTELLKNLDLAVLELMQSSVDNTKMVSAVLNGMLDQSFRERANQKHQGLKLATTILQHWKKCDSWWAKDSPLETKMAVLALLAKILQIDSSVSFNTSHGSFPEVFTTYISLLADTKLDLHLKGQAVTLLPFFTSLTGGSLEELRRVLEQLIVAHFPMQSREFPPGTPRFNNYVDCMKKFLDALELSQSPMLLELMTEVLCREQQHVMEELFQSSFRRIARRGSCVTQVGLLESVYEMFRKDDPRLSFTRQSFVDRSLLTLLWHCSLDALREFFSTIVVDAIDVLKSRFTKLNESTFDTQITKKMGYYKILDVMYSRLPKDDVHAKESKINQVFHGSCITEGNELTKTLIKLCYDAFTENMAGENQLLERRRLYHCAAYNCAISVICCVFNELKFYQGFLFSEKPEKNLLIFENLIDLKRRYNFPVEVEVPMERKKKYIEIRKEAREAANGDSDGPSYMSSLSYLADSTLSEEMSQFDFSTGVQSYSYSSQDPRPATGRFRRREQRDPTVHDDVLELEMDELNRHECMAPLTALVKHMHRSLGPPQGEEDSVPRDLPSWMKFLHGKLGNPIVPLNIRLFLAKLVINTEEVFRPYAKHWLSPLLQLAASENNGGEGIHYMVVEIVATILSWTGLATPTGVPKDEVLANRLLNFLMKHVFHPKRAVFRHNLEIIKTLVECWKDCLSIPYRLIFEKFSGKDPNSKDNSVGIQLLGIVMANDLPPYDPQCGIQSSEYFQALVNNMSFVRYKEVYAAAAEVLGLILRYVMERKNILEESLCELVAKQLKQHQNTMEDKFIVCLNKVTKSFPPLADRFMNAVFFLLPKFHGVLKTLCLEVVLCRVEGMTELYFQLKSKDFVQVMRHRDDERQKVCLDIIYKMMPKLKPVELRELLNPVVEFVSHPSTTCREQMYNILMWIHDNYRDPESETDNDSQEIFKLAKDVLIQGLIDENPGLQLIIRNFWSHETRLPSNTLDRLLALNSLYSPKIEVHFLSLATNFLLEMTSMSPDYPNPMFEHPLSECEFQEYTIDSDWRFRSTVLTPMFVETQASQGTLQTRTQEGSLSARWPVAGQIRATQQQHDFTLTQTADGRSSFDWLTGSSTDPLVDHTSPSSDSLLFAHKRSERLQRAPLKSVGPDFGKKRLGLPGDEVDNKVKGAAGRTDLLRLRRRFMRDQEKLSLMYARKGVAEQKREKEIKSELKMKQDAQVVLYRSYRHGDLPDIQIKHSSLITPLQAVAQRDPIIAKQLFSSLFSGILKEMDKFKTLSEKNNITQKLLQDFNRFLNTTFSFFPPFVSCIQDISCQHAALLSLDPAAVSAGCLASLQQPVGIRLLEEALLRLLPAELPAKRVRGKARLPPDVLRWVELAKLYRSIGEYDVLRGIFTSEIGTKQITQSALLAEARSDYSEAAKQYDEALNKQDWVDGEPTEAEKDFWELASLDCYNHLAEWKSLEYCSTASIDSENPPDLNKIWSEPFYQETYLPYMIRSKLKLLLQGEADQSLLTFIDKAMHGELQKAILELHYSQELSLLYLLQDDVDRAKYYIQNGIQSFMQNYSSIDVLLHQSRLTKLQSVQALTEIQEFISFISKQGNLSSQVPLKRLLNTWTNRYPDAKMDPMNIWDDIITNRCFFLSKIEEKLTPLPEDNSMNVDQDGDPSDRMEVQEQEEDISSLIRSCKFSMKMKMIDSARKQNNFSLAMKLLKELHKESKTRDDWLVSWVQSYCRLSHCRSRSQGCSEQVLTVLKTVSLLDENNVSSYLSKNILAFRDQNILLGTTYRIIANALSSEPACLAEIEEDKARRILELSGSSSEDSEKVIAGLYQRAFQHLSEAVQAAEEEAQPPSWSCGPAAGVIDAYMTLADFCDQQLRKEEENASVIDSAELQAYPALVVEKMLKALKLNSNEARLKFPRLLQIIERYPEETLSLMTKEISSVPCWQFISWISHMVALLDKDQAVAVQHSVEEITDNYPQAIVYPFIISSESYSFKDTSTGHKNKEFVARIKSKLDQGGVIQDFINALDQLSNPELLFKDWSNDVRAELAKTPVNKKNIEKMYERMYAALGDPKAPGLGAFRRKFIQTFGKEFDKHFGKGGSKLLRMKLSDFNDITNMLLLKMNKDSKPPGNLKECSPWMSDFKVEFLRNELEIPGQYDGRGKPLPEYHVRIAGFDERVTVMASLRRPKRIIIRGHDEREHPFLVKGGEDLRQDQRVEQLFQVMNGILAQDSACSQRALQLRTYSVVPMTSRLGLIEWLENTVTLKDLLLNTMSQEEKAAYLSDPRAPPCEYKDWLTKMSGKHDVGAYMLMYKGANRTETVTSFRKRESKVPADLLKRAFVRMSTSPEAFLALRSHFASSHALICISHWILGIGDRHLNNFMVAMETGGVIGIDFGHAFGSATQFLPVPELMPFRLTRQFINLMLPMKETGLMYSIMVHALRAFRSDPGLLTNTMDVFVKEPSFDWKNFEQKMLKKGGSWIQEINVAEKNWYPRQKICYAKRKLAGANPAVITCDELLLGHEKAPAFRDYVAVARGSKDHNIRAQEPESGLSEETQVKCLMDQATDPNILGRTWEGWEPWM
T2 sequence (P42336 whole entry, canonical isoform): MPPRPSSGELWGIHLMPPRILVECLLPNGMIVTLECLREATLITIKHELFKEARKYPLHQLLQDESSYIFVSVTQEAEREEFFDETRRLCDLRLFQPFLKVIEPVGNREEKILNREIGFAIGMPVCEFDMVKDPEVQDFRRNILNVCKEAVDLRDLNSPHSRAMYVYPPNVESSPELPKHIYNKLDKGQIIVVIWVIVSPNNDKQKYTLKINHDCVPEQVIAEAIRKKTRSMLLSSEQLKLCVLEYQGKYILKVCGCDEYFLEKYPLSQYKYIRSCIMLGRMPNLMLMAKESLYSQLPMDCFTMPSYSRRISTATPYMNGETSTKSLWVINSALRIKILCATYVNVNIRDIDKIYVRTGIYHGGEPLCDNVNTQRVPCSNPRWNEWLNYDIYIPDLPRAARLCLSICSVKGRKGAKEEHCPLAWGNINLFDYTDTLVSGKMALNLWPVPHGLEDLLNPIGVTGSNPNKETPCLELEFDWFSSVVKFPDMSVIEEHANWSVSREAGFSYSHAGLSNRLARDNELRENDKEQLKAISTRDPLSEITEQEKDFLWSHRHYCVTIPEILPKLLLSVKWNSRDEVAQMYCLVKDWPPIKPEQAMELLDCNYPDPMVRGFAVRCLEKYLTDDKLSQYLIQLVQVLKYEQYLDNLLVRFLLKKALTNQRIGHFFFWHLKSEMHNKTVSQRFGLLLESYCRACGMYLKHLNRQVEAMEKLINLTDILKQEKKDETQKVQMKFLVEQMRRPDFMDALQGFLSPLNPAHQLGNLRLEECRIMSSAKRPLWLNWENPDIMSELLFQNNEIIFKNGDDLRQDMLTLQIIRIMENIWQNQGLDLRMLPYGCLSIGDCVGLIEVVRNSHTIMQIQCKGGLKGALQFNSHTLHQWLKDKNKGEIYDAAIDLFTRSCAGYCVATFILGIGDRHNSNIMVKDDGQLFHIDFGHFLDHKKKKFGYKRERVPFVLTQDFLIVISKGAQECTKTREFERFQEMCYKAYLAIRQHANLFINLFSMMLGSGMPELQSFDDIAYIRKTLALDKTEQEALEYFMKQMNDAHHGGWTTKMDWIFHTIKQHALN

On to `C=CCn1c(=O)c2cnc(Nc3ccc4c(c3)OC[C@@H]3CN(C)CCN43)nc2n1-c1ccc(C(C)(C)O)cn1`, for which the IC50 in data set [1] worked out at 2.49 nM.
For the compound `Nc1ncc(-c2nc(N3CCOCC3)nc(N3CCN(C(=O)c4cc(Cc5n[nH]c(=O)c6ccccc56)ccc4F)CC3)n2)cn1`, the IC50 in data set [2] is 0.78 nM; in [3], 94 nM; in data set [4], 1050 nM; in data set [5] it was 426 nM; in [6], 1190 nM.
In data set [7], `Cc1cc2ncnn2cc1Nc1ncc2c(n1)C1(CCC3(CC3)CC1)C(=O)N2C` displayed a Cmax of 2170 nM. The bioavailability in [8] was found to be 83%.
In the case of `Cc1ncc(-c2cc(NC[C@@H](C)c3cccc4c(-c5noc(=O)[nH]5)ccnc34)ncn2)cn1`, the IC50 in [9] turned out to be 39 nM.
`C[C@@H]1CN(c2ccc(Nc3cc4c(cn3)C(=O)N(c3c(Cl)cccc3Cl)C3=NCCN34)cc2)C[C@H](C)N1C` registered an IC50 in data set [10] of 105 nM.
For the compound `NC(=O)c1cccc2cn(-c3ccc([C@@]4(F)CCCNC4)cc3)nc12`, in data set [11], the IC50 is under 100 nM.
Turning to `CNc1nc2ccc(F)cc2n1-c1nc(-c2ccnn2C)cc(N2CCOC[C@H]2C)n1`, the IC50 is under 500 nM in data set [12], under 10000 nM in data set [13] and under 10000 nM in [14].
With `COc1ccc(Nc2cc(-c3ncnc4cc(N5CCOCC5)ccc34)c(F)cc2Cl)nn1`, the IC50 in data set [9] stood at 165 nM.
Consider `Nc1cc(C(F)(F)F)c(-c2nc(N3CCOCC3)nc(N3CCN(C(=O)c4cc(Cc5n[nH]c(=O)c6ccccc56)ccc4F)CC3)n2)cn1`, for which the IC50 in data set [3] was determined as 81.7 nM; in [4], 342 nM; in data set [5], 264 nM; in data set [6], 3290 nM.
In data set [10], `CN1CCN(c2ccc(Nc3cc4c(cn3)C(=O)N(c3ccccc3Cl)C3=NCCN34)cc2)CC1` showed an IC50 of 154 nM.
The same measure, in the same setting: as for `C=CCn1c(=O)c2cnc(Nc3ccc(N4CCN(C)CC4)cc3)nc2n1-c1cccc(C(C)(C)O)n1` [ADAVOSERTIB], the figure is 284 nM.
For `COc1ccccc1NC(=O)c1ccc(NC(=O)N2CCN(C(=O)c3cc(Cc4n[nH]c(=O)c5ccccc45)ccc3F)CC2)cc1`, the IC50 in [2] came out at 0.59 nM; in [15], 34.8 nM; in data set [16], 6.45 nM.
`CC(C)n1c(=O)n(C)c2cnc3ccc(-c4ccc(OCCCN5CCCC5)nc4)cc3c21`: the IC50 in [17] is over 30000 nM; in data set [18], 1.59 nM; in data set [22], over 10000 nM; in data set [23], over 10000 nM. The Ratio IC50 in data set [19], in data set [20] and in data set [21] was over 1000 throughout.
Consider `C=CCn1c(=O)c2cnc(Nc3ccc4c(c3)OC[C@@H]3C[C@@H](N(C)C)CN43)nc2n1-c1ccc(C(C)(C)O)cn1`, for which the IC50 in data set [1] worked out at 4.78 nM.
`CN(C)CCCOc1ncc(-c2ccc3ncc4c(c3c2)C2(CCC2)C(=O)N4C)cc1NS(=O)(=O)C(F)(F)F`: the IC50 in data set [24] and in [25] was 1 nM each time.
On to `Cc1cc2ncnn2cc1Nc1ncc2c(n1)n(N1CCOCC1)c(=O)n2C`, for which the bioavailability in data set [8] is 96.4%.
Turning to `O=c1[nH]c(N[C@H]2CC[C@@H](Oc3cc(N4CCOCC4)cc4nccnc34)CC2)ncc1F`, the Ki in data set [26] was under 100 nM.
Turning to `C[C@@H]1COC[C@H]2COc3c(nc(-c4ccnc5[nH]ccc45)nc3C3(S(C)(=N)=O)CC3)N21` (some centres undefined), the IC50 in data set [27] is 4 nM; in [28], 699 nM.
`C[C@H]1CN(C(=O)c2cc(Cc3n[nH]c(=O)c4c3CCCC4)ccn2)CCN1C(=O)C(=O)C1CC1` had a half-inhibitory concentration (IC50) in data set [29] of under 200 nM.

Values taken from ChEMBL document CHEMBL5126523, “Recent advances in DDR (DNA damage response) inhibitors for cancer therapy” (Eur J Med Chem, 2022).
